Test results: PubChem BioAssay AID1259407 (Chemical Carcinogenesis Research Information System (CCRIS), 2018)
Entries after “also recorded” stand apart in the source; their conditions may differ. Calls of active or inactive are those of the source. The rule behind the calls is not given here.

Test system: CCRIS mutagenicity, Ames/micronucleus/aberration tests
Assay: CCRIS mutagenicity studies

Measured: mutagenic call

COc1cc2c(c3oc(=O)c4c(c13)CCC4=O)[C@@H]1C=CO[C@@H]1O2
active: Test System: AMES SALMONELLA TYPHIMURIUM, Strain/Indicator: TA100, Metabolic Activation: MOUSE, LIVER, MICROSOMES, BENZO[E]PYRENE AND TCDD, Method: STANDARD PLATE active; positive | Test System: AMES SALMONELLA TYPHIMURIUM, Strain/Indicator: TA100, Metabolic Activation: RABBIT, LUNG, CLARA CELL-RICH FRACTION, Method: PREINCUBATION active; positive | Test System: AMES SALMONELLA TYPHIMURIUM, Strain/Indicator: TA100, Metabolic Activation: RAT LIVER S-9, DELOR 103, Method: STANDARD PLATE active; positive | Test System: AMES SALMONELLA TYPHIMURIUM, Strain/Indicator: TA100, Metabolic Activation: RAT LIVER S-9, DELOREM 103, Method: STANDARD PLATE active; positive | Test System: AMES SALMONELLA TYPHIMURIUM, Strain/Indicator: TA100, Metabolic Activation: RAT, LIVER, MICROSOMES, PHENOBARBITAL, Method: STANDARD PLATE active; positive | Test System: AMES SALMONELLA TYPHIMURIUM, Strain/Indicator: TA100, Metabolic Activation: RAT, LIVER, S-9, ACRYLAMIDE, Method: STANDARD PLATE active; positive | Test System: AMES SALMONELLA TYPHIMURIUM, Strain/Indicator: TA100, Metabolic Activation: RAT, LIVER, S-9, AROCLOR 1254, Method: MICROSUSPENSION active; positive | Test System: AMES SALMONELLA TYPHIMURIUM, Strain/Indicator: TA100, Metabolic Activation: RAT, LIVER, S-9, AROCLOR 1254, Method: PREINCUBATION active; positive | Test System: AMES SALMONELLA TYPHIMURIUM, Strain/Indicator: TA100, Metabolic Activation: RAT, LIVER, S-9, AROCLOR 1254, Method: STANDARD PLATE active; positive | Test System: AMES SALMONELLA TYPHIMURIUM, Strain/Indicator: TA100, Metabolic Activation: RAT, LIVER, S-9, PHENOBARBITAL, Method: PREINCUBATION active; positive | Test System: AMES SALMONELLA TYPHIMURIUM, Strain/Indicator: TA100, Metabolic Activation: RAT, LIVER, S-9, PHENOBARBITAL, Method: STANDARD PLATE active; positive | Test System: AMES SALMONELLA TYPHIMURIUM, Strain/Indicator: TA1538, Metabolic Activation: RAT, LIVER, S-9, AROCLOR 1254, Method: STANDARD PLATE active; positive | Test System: Ames Salmonella typhimurium, Strain/Indicator: TA98, Metabolic Activation: Rat, Liver, S-9, Aroclor 1254, Method: Preincubation active; positive (decrease in mutagenicity when 0.99-15.90 mg/plate of chloroform extrac; also recorded: active; positive (decrease in mutagenicity when 0.46-7.30 mg/plate of methanol extract o | Test System: Ames Salmonella typhimurium, Strain/Indicator: TA100, Metabolic Activation: Rat, Liver, S-9, Aroclor 1254, Method: Preincubation active; positive (decrease in mutagenicity when 0.46-7.30 mg/plate of methanol extract o | Test System: CHINESE HAMSTER V-79, Strain/Indicator: V-79/6-THIOGUANINE, Metabolic Activation: RAT, HEPATOCYTES, BUTYLATED HYDROXYANISOLE, Method: STANDARD PLATE active; positive | Test System: CHINESE HAMSTER V-79, Strain/Indicator: V-79/6-THIOGUANINE, Metabolic Activation: RAT, HEPATOCYTES, Method: STANDARD PLATE active; positive | Test System: CHINESE HAMSTER V-79, Strain/Indicator: V-79/6-THIOGUANINE, Metabolic Activation: RAT, LIVER, S-9, PHENOBARBITAL, Method: STANDARD PLATE active; positive | Test System: CHINESE HAMSTER V-79, Strain/Indicator: V-79/OUABAIN, Metabolic Activation: CELL-MEDIATED, Method: STANDARD PLATE active; positive | Test System: CHINESE HAMSTER V-79, Strain/Indicator: V-79/OUABAIN, Metabolic Activation: RAT, HEPATOCYTES, BUTYLATED HYDROXYANISOLE, Method: STANDARD PLATE active; positive | Test System: CHINESE HAMSTER V-79, Strain/Indicator: V-79/OUABAIN, Metabolic Activation: RAT, HEPATOCYTES, Method: STANDARD PLATE active; positive | Test System: UDS GUINEA PIG HEPATOCYTES, Strain/Indicator: THY INCORP, Metabolic Activation: NONE, Method: AUTORADIOGRAPHY active; positive | Test System: UDS HUMAN CELLS, Strain/Indicator: THY INCORP (NON-S-PHASE), Metabolic Activation: RAT, LIVER, S-9, PHENOBARBITAL, Method: LIQUID SCINTILLATION COUNTING active; positive | Test System: UDS HUMAN FIBROBLASTS, Strain/Indicator: THY INCORP (NON-S-PHASE), Metabolic Activation: MOUSE, LIVER, S-9, Method: AUTORADIOGRAPHY active; positive | Test System: UDS HUMAN FIBROBLASTS, Strain/Indicator: THY INCORP (NON-S-PHASE), Metabolic Activation: NONE, Method: AUTORADIOGRAPHY active; positive | Test System: UDS HUMAN FIBROBLASTS, Strain/Indicator: THY INCORP (NON-S-PHASE), Metabolic Activation: NONE, Method: LIQUID SCINTILLATION COUNTING active; positive | Test System: UDS HUMAN HEPATOCYTES, Strain/Indicator: THY INCORP, Metabolic Activation: NONE, Method: AUTORADIOGRAPHY active; positive | Test System: UDS MONKEY HEPATOCYTES, Strain/Indicator: THY INCORP, Metabolic Activation: NONE, Method: AUTORADIOGRAPHY active; positive | Test System: UDS RAT HEPATOCYTES, Strain/Indicator: BROMODEOXYURIDINE INCORP, Metabolic Activation: NONE, Method: FLOW CYTOMETRIC ANALYSIS active; positive | Test System: UDS RAT HEPATOCYTES, Strain/Indicator: THY INCORP, Metabolic Activation: AROCLOR 1254, Method: AUTORADIOGRAPHY active; positive | Test System: UDS RAT HEPATOCYTES, Strain/Indicator: THY INCORP, Metabolic Activation: NONE, Method: AUTORADIOGRAPHY active; positive | Test System: UDS RAT HEPATOCYTES, Strain/Indicator: THY INCORP, Metabolic Activation: NONE, Method: LIQUID SCINTILLATION COUNTING active; positive | Test System: UDS RODENT HEPATOCYTES, Strain/Indicator: THY INCORP (NON-S-PHASE), Method: AUTORADIOGRAPHY active; positive | Test System: UDS RODENT HEPATOCYTES, Strain/Indicator: THY INCORP (NON-S-PHASE), Method: LIQUID SCINTILLATION COUNTING active; positive | Test System: UDS RODENT PRIMARY CELLS, Strain/Indicator: THY INCORP (NON-S-PHASE), Metabolic Activation: NONE, Method: AUTORADIOGRAPHY active; positive
inactive: Test System: CHINESE HAMSTER V-79, Strain/Indicator: V-79/6-THIOGUANINE, Metabolic Activation: NONE, Method: STANDARD PLATE inactive; negative | Test System: CHINESE HAMSTER V-79, Strain/Indicator: V-79/OUABAIN, Metabolic Activation: NONE, Method: STANDARD PLATE inactive; negative
